Reference: ChEMBL document CHEMBL1201862, “PubChem BioAssay data set” (2004)
Activity calls are given as the source filed them.

How the values were obtained:
[1] = target: 5-hydroxytryptamine receptor 5A (Homo sapiens, UniProt P47898); experiment: Counterscreen for agonists of OPRM1-OPRD1 heterodimerization: luminescence-based cell-based high throughput dose response assay to identify agonists of 5-hydroxytryptamine (serotonin) 5A receptor (HTR5A). [Related pubchem assays (depositor defined):AID504326, AID504355, AID504692, AID504904, AID504905]; format: functional
Chain of 5-hydroxytryptamine receptor 5A (P47898 whole entry): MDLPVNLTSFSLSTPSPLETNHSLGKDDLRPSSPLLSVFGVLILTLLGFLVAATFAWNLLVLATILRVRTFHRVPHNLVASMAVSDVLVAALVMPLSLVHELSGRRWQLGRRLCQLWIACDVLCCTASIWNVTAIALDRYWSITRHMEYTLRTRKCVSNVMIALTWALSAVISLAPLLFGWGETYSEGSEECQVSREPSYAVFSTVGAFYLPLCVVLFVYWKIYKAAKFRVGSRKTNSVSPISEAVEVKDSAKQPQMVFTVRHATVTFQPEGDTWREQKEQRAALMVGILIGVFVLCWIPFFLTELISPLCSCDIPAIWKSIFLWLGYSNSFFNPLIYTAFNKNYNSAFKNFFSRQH

[2] = target: T1, Short transient receptor potential channel 4 (Mus musculus, UniProt Q9QUQ5); experiment: mouse TRPC4 channel activators, dose response, cell-based, HEK293 TRPC4/mu-opioid, Fluo-4 calcium (AID 434937); format: functional
T1 sequence (Q9QUQ5 whole entry): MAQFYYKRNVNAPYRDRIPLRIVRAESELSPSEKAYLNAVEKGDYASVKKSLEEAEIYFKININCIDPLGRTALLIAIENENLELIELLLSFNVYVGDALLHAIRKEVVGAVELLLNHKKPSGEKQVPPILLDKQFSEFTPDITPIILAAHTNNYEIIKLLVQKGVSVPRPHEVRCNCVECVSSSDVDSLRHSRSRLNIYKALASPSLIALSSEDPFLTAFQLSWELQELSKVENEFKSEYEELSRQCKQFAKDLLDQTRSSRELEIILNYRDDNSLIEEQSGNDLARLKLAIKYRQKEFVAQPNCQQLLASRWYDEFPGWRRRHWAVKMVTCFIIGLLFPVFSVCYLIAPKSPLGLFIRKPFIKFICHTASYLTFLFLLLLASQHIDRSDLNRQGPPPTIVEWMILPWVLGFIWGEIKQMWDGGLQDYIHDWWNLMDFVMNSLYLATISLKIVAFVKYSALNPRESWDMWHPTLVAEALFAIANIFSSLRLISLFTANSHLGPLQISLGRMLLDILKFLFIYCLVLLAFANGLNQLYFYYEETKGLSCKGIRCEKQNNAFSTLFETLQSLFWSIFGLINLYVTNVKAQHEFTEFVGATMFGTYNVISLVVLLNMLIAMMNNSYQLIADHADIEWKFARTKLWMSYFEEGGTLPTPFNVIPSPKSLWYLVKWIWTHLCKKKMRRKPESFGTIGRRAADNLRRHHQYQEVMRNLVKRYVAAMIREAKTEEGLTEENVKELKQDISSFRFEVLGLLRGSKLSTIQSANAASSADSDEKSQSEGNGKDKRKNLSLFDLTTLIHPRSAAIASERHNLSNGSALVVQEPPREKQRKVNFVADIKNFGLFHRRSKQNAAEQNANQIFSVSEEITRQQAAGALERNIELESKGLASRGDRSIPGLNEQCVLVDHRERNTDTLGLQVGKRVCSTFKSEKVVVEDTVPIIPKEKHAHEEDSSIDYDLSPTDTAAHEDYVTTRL

[3] = target: Delta-type opioid receptor (Homo sapiens, UniProt P41143); experiment: Counterscreen for agonists of heterodimerization of the mu 1 (OPRM1) and delta 1 (OPRD1) opioid receptors: Luminescence-based cell-based high throughput dose response assay to identify agonists of OPRD1 homodimerization. [Related pubchem assays (depositor defined):AID504326, AID504355, AID504692, AID504904, AID504905]; format: functional
Chain of Delta-type opioid receptor (P41143 whole entry): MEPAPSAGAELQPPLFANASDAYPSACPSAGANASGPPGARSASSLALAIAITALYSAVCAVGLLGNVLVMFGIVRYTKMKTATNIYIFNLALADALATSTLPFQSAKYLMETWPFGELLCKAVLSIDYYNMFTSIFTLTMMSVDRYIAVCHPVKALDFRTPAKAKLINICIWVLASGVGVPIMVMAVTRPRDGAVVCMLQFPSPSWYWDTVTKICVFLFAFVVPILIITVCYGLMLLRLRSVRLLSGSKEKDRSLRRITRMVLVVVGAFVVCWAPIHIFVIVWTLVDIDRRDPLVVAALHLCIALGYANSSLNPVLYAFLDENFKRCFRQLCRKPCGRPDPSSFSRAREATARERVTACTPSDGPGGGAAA

Mu-type opioid receptor = Mu-type opioid receptor (Homo sapiens, UniProt P35372); experiment: Counterscreen for agonists of heterodimerization of the mu 1 (OPRM1) and delta 1 (OPRD1) opioid receptors: Luminescence-based cell-based high throughput dose response assay to identify agonists of OPRM1 homodimerization.; format: functional;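 further: U2OS cells expressing OPRM1 and beta-arrestin as split beta-galactosidase partners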
Large T antigen = Large T antigen (Simian virus 40, UniProt P03070); format: functional, Betapolyomavirus macacae;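 further: Confirmatory-stage PubChem screen for compounds that inhibit SV40 T antigen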
Chain of Large T antigen (P03070 whole entry): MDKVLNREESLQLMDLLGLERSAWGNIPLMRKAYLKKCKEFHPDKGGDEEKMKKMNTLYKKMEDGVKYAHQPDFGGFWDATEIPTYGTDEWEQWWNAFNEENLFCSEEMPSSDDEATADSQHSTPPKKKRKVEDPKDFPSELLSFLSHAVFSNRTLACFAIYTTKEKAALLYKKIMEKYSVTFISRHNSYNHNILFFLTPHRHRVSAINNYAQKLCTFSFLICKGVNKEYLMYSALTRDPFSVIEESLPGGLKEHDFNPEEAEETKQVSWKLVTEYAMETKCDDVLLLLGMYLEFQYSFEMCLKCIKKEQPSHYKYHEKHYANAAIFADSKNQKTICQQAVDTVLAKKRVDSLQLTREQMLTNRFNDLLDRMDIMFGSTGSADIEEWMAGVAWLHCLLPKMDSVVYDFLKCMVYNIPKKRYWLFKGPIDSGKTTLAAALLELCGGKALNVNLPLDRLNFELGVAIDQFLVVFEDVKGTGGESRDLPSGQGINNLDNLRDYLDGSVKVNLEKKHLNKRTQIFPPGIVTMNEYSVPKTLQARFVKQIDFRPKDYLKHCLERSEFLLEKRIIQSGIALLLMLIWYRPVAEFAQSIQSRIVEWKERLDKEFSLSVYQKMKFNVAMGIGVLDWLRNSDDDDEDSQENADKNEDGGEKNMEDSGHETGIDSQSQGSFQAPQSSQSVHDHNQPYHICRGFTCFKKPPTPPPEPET

[4] = target: T2, Alkaline phosphatase, tissue-nonspecific isozyme (Homo sapiens, UniProt P05186); experiment: inhibition of tissue-nonspecific alkaline phosphatase – biochemical, dose response (AID 488882); format: functional
T2 sequence (P05186 whole entry): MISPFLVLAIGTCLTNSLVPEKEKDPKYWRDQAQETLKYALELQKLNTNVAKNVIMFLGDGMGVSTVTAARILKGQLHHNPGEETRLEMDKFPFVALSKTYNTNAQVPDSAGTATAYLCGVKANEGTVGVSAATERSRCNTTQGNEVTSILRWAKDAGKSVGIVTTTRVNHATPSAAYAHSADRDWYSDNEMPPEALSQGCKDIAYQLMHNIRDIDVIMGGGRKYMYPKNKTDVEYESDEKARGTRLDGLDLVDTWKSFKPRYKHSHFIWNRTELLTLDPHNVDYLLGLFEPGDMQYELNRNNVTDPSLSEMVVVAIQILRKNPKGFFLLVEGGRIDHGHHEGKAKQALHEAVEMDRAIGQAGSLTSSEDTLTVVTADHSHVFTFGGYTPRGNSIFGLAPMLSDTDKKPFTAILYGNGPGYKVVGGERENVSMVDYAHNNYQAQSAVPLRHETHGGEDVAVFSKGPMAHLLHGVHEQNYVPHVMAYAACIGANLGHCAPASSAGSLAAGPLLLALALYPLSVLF

[5] = target: T3, Intestinal-type alkaline phosphatase (Homo sapiens, UniProt P09923); experiment: Dose Response confirmation of uHTS hits from a small molecule inhibitors of human intestinal alkaline phosphatase via a luminescent assay. [Related pubchem assays (depositor defined):AID2544, AID2574]; format: functional
T3 sequence (P09923 whole entry): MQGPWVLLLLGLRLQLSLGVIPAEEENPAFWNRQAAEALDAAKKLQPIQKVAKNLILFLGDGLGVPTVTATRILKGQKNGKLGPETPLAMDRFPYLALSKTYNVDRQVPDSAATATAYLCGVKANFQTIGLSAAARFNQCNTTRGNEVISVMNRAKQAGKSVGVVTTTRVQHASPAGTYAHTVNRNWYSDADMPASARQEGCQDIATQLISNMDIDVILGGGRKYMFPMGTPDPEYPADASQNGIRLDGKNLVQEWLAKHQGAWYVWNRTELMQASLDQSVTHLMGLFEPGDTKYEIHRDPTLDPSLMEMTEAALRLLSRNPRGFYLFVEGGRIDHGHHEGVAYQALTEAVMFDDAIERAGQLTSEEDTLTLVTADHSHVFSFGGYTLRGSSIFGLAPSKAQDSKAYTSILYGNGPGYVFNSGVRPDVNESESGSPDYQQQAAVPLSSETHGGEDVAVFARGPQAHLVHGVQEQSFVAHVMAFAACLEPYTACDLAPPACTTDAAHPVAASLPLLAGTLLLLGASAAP

[6] = target: Intestinal-type alkaline phosphatase (Mus musculus, UniProt P24822); experiment: PubChem AID 488874; format: functional
Leucine aminopeptidase = target: T4, Leucine aminopeptidase (Plasmodium falciparum 3D7, UniProt Q8IL11); experiment: P. falciparum M17LAP inhibitors, primary screen, biochemical, fluorogenic H-Leu-NHMec substrate, 1536-well (AID 1619); format: functional
T4 sequence (Q8IL11 whole entry): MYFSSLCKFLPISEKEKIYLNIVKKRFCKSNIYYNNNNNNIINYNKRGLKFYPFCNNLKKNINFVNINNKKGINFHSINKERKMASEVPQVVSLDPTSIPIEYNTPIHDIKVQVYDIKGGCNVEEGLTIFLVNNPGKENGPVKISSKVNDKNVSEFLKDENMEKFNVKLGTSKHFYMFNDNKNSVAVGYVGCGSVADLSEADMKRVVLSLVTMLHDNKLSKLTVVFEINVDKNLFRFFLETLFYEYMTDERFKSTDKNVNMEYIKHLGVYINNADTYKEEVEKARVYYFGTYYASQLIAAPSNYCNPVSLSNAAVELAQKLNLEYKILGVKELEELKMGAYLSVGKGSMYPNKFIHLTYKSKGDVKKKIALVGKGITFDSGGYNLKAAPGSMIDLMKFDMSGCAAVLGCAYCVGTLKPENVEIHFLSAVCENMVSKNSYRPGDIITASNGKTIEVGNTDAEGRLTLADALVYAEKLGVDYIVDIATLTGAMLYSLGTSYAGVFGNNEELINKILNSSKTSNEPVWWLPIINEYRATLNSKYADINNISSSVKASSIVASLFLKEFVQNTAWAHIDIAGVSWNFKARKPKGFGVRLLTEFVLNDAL

[7] = target: T3, Intestinal-type alkaline phosphatase; experiment: human IAP inhibitors, dose response, biochemical, luminescent, uHTS hits, set 2 (AID 488793); format: functional
[8] = target: Glyceraldehyde-3-phosphate dehydrogenase (Homo sapiens, UniProt P04406)
Chain of Glyceraldehyde-3-phosphate dehydrogenase (P04406 whole entry): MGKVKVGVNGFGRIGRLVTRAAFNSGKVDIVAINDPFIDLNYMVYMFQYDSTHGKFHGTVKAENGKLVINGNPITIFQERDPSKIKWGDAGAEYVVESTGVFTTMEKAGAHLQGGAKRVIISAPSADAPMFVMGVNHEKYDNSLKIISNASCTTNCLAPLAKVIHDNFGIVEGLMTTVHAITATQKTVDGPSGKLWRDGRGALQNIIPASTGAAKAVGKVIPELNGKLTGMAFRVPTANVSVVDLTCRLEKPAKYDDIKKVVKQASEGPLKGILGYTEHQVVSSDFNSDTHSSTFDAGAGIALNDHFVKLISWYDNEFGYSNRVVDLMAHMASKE

[9] = target: T5, Tyrosine-protein phosphatase non-receptor type 7 (Homo sapiens, UniProt P35236); format: functional
T5 sequence (P35236 whole entry): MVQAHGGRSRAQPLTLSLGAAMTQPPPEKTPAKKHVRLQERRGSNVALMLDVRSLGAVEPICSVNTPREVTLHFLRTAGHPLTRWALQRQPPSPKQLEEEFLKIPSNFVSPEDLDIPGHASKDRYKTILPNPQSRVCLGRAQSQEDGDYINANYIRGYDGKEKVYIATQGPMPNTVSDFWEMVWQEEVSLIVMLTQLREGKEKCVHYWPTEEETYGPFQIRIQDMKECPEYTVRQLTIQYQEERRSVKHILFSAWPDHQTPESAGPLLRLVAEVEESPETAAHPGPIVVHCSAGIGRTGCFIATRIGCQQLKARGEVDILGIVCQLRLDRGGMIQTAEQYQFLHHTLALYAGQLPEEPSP

[10] = target: T6, Dual specificity protein phosphatase 6 (Rattus norvegicus, UniProt Q64346); format: functional
T6 sequence (Q64346 whole entry): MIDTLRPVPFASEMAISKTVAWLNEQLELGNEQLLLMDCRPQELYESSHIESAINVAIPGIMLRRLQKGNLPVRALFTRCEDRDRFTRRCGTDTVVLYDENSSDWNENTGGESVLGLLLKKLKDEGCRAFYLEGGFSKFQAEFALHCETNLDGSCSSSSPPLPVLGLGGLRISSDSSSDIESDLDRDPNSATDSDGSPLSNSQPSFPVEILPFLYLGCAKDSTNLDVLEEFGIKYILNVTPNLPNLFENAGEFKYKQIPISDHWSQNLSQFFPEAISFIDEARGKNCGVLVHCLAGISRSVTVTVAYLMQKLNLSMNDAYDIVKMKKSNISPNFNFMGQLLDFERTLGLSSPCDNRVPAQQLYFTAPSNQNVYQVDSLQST

[11] = target: T6, Dual specificity protein phosphatase 6
Vero [12] = experiment: cells; format: functional, cell-based; details: Chlorocebus sabaeus
[13] = Shn3 3'UTR reporter inhibitors, dose response, cell-based, Clone20 osteoblasts, firefly luciferase, cherry-picked (AID 624132); format: functional;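 further: firefly luciferase luminescence from reporter carrying the Shn3 3'UTR in osteoblasts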
Escherichia coli [14] = experiment: microbe, parasite or virus in culture
[15] = HepG2 cell cytotoxicity, dose response, cytotoxicity control for Shn3 inhibitor project, CellTiter-Glo, cherry-picked (AID 624134); format: functional, cell-based
Vero [16] = experiment: cells; format: functional; details: Chlorocebus sabaeus
Paired box protein Pax-8 = Paired box protein Pax-8 (Homo sapiens, UniProt Q06710); experiment: inhibitors of PAX8-driven TPO luciferase reporter, dose response, RMG-I cells, cherry-pick (AID 687027); format: functional, cell-based;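 further: luciferase reporter driven by Pax8 target thyroperoxidase promoter measured by SteadyGlo luminescence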
Chain of Paired box protein Pax-8 (Q06710 whole entry): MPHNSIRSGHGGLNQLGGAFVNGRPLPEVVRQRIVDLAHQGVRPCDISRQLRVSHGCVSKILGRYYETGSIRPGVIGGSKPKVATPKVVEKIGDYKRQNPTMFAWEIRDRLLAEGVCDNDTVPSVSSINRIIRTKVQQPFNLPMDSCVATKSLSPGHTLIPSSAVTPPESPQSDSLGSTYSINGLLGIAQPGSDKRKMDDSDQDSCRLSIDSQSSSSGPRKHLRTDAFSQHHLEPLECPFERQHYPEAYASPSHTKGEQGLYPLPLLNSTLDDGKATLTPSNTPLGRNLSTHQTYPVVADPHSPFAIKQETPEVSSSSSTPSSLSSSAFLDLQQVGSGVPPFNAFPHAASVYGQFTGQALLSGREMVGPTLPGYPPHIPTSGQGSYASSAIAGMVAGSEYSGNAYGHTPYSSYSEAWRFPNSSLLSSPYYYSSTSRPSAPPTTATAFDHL

Escherichia coli [17] = experiment: microbe, parasite or virus in culture; remark: listed apart in the source
[18] = control 3'UTR Renilla luciferase suppression, dose response, counter-screen for Shn3 inhibitor project, cell-based, Clone20-Shn3RL, cherry-picked (AID 624133); format: functional
[19] = target: Beta-adrenergic receptor kinase 1 (Homo sapiens, UniProt P25098); experiment: GRK2 inhibitors displacing RNA aptamer, dose response, biochemical, flow cytometry beads, FAM-aptamer, powder set 1 (AID 588720)
Chain of Beta-adrenergic receptor kinase 1 (P25098 whole entry): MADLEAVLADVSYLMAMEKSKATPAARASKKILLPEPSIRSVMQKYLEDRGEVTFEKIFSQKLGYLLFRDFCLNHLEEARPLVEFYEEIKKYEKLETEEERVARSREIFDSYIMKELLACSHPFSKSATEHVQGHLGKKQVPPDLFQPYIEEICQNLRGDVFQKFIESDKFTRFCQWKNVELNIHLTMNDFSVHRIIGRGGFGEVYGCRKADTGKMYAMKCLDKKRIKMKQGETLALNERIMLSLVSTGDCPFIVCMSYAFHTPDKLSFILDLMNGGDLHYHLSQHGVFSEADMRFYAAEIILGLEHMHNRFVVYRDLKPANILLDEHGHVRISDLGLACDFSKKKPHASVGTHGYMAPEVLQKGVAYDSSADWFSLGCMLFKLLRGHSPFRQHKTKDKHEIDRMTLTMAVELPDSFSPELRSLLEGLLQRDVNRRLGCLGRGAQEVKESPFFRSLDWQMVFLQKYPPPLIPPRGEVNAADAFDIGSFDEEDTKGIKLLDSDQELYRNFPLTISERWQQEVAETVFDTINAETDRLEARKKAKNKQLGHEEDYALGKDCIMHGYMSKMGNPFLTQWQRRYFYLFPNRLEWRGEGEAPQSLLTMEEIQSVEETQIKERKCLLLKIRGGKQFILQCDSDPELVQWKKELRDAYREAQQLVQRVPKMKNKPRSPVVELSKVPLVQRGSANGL

Hexokinase-1 = Hexokinase-1 (Homo sapiens, UniProt P19367); experiment: HK1 enzyme inhibition by HKDC1 hits, SAR follow-up, selectivity assay for HKDC1 inhibitor project, biochemical, set 2, resazurin fluorescence coupled readout (AID 588356); format: functional
Chain of Hexokinase-1 (P19367 whole entry): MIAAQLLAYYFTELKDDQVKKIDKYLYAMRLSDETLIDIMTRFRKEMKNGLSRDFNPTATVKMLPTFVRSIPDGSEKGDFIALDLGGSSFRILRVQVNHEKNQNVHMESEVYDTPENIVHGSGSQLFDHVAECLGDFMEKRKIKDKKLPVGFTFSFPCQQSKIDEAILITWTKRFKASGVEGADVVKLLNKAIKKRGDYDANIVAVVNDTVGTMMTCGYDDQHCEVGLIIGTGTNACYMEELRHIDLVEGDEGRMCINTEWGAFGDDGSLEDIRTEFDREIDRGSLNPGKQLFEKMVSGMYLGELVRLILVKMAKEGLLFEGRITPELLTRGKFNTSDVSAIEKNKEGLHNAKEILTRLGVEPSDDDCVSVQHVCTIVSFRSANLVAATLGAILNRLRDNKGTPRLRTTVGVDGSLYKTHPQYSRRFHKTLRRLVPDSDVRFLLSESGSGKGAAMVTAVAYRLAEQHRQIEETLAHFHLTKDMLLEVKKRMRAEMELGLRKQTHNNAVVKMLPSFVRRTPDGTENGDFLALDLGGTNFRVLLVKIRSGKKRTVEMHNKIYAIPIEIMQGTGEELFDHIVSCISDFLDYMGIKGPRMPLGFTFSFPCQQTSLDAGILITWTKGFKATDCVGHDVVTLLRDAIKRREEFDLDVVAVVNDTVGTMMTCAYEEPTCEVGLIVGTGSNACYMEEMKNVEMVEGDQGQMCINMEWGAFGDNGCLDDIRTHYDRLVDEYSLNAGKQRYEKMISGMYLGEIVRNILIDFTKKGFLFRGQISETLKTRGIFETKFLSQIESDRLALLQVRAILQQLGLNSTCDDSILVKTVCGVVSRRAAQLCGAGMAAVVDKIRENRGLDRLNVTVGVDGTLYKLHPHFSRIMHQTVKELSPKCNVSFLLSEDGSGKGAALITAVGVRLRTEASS

Hexokinase HKDC1 = target: T7, Hexokinase HKDC1 (Homo sapiens, UniProt Q2TB90); experiment: HKDC1 hexokinase inhibitors, SAR follow-up, biochemical, set 2 (AID 588355); format: functional
T7 sequence (Q2TB90 whole entry): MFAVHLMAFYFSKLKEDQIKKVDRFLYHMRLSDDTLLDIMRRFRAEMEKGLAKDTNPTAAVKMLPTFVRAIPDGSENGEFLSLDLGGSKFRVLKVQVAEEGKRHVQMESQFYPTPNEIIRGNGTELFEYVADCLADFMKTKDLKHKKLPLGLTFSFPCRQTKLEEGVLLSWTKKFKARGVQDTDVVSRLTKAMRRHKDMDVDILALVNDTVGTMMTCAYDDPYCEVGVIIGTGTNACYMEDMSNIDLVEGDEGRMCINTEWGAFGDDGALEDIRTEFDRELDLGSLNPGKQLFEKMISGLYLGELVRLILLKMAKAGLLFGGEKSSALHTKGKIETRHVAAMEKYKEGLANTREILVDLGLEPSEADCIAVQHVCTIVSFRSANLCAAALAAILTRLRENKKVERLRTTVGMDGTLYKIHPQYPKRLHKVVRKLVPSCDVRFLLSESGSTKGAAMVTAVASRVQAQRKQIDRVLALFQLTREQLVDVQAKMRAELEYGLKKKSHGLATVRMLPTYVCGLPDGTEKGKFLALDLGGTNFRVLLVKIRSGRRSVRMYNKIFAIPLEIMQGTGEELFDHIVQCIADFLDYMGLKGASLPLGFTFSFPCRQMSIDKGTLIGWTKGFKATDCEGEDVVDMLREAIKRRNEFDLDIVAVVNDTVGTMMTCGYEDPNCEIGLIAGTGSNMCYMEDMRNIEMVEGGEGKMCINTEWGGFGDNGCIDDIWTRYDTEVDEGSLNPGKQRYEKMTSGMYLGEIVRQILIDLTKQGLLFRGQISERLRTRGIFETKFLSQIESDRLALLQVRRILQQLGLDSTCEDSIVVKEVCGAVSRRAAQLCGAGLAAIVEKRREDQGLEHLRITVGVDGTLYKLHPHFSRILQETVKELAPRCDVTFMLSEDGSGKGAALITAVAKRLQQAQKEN

CN(C)C(CN=C(S)Nc1cccc(Cl)c1)c1cccnc1 (stereo not given)
EC50 [1]: > 92.5 µM (inactive)
EC50 [2]: 0.0133 µM (active)
EC50 [3]: 20.5 µM (inactive)
EC50 (Mu-type opioid receptor): 7.49 µM (active)

O=C(O)C1OC(Oc2c(-c3ccc(O)c(O)c3)oc3cc(O)cc(O)c3c2=O)C(O)C(O)C1O (stereo not given)
IC50 (Large T antigen): 9.8 µM (active)
IC50 [4]: > 100 µM (inactive)
IC50 [5]: 3.15 µM (active)
IC50 [6]: 3.29 µM (active)
IC50 (Leucine aminopeptidase): 48.2 µM (active)
IC50 [7]: 0.891 µM (active)

CC(C)[C@@H](C(N)=O)n1c(=O)[nH]c(=O)n(-c2ccc(Cl)cc2)c1=O
IC50 [8]: > 100 µM (not active)
IC50 [9]: > 100 µM (not active)
IC50 [10]: > 100 µM (inactive)
IC50 [11]: > 100 µM (inactive)

CC(N)C(=O)NC1C2C(=C(O)OC1(C)C(Cl)Cl)C(=O)CC(O)C2O (stereo not given)
IC50 (Vero [12]): > 25 µM (active)
AC50 [13]: 1.85 µM (active)
AC50 (Escherichia coli [14]): 20.8 µM (active)
AC50 [15]: > 70 µM (inactive)
CC50 (Vero [16]): 3.08 µM (active)
AC50 (Paired box protein Pax-8): 0.546 µM (active)
AC50 (Escherichia coli [17]): 113 µM (active)
AC50 [18]: 2.03 µM (active)

CCc1ccccc1NC(=O)CCS(=O)(=O)c1ccc(Br)cc1
EC50 [19]: 3.48 µM (active)

Cc1ccccc1N1C(=O)c2ccccc2C1Nc1ccc(Br)cc1 (stereo not given)
IC50 (Hexokinase-1): > 80 µM (inactive)
IC50 (Hexokinase HKDC1): > 80 µM (inactive)
